# Reference: US12661359B2 (Madrigal Pharmaceuticals, Inc., priority 2021, dated 2026)
# Experiments:
# human OSTαβ = biological target: T1, human OSTαβ (Homo sapiens, UniProt Q86UW1+Q86UW2); assay: OSTαβ-mediated transport in transfected MDCK-II cells versus control cells
# T1 sequence (Q86UW1 1-340): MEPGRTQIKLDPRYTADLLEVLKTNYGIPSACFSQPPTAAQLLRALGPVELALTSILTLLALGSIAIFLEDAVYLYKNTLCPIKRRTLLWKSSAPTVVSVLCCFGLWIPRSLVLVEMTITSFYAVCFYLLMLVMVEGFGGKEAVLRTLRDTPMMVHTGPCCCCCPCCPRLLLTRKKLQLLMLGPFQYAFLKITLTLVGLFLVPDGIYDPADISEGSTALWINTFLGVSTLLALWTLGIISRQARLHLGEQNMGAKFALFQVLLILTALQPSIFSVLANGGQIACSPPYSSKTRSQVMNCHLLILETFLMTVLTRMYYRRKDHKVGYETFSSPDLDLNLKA
# T1 sequence (Q86UW2 1-128): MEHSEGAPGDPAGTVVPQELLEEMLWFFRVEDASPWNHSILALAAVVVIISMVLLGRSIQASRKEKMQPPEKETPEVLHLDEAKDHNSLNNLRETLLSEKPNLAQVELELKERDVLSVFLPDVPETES
# Protocol: Transfected cells and control cells are both exposed to the compound, and the concentration of the compound in the transfected cells and the control cells are then measured. An uptake ratio can then be calculated to quantify the difference of the concentration, indicating whether OSTαβ mediates the transport of the compound.
# MGL-3196 was tested as a potential substrate for human OSTαβ-mediated transport.
# [1] = human, in vivo
# clinical = conditions: human, in vivo; for AUC(0-inf): AUCinf; for AUC(0-t): AUClast
# [2] = tested on: patients with heterozygous familial hypercholesterolemia (HeFH); assay: Phase 2 trial MGL-3196-06 (NCT03038022) in HeFH patients; format: in vivo, human; conditions: MGL-3196 100 mg once daily, 12 weeks
# Protocol: A Phase 2 clinical trial was conducted in 116 patients with proven heterozygous familial hypercholesterolemia (HeFH). The primary endpoint was reduction in LDL-C compared with placebo and secondary endpoints included effects on additional lipids and lipoproteins.
# MGL-3196-06 (NCT03038022) was a 12-week multicenter, randomized, double blind, placebo-controlled trial in HeFH patients not at LDL-C target on maximally tolerated statins. Patients received MGL-3196 100 mg or placebo once daily for 12 weeks (in a 2:1 ratio) in addition to their LDL-C lowering regimen.
# BCRP = biological target: T2, BCRP (Homo sapiens, UniProt Q9UNQ0); assay: BCRP inhibition and DDI R-value assessment; format: in vitro ADME
# T2 sequence (Q9UNQ0 1-655): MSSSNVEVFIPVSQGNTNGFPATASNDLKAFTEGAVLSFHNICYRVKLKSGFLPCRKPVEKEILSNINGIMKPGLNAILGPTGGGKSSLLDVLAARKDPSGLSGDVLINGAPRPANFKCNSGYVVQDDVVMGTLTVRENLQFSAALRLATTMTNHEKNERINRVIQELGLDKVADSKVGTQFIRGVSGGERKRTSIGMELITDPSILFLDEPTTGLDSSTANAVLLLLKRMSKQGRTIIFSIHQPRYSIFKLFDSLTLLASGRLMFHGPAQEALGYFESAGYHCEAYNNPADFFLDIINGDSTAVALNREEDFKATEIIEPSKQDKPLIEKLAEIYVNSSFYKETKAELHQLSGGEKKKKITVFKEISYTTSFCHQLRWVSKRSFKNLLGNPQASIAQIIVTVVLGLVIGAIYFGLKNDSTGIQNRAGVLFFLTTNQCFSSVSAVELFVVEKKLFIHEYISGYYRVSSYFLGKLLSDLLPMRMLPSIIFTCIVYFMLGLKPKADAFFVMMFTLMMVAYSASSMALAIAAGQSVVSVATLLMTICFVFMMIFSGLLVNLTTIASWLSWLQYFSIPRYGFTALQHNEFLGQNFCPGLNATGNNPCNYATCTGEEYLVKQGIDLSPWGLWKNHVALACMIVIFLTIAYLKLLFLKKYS
# Text: (§1) Based on the predicted gut-wall BCRP interaction (R=33.5), there is a possible contribution of gut BCRP inhibition to drug interactions.
# P-gp = P-gp (Homo sapiens, UniProt P08183); assay: P-gp inhibition; format: in vitro ADME
# P-gp, sequence (P08183 whole entry): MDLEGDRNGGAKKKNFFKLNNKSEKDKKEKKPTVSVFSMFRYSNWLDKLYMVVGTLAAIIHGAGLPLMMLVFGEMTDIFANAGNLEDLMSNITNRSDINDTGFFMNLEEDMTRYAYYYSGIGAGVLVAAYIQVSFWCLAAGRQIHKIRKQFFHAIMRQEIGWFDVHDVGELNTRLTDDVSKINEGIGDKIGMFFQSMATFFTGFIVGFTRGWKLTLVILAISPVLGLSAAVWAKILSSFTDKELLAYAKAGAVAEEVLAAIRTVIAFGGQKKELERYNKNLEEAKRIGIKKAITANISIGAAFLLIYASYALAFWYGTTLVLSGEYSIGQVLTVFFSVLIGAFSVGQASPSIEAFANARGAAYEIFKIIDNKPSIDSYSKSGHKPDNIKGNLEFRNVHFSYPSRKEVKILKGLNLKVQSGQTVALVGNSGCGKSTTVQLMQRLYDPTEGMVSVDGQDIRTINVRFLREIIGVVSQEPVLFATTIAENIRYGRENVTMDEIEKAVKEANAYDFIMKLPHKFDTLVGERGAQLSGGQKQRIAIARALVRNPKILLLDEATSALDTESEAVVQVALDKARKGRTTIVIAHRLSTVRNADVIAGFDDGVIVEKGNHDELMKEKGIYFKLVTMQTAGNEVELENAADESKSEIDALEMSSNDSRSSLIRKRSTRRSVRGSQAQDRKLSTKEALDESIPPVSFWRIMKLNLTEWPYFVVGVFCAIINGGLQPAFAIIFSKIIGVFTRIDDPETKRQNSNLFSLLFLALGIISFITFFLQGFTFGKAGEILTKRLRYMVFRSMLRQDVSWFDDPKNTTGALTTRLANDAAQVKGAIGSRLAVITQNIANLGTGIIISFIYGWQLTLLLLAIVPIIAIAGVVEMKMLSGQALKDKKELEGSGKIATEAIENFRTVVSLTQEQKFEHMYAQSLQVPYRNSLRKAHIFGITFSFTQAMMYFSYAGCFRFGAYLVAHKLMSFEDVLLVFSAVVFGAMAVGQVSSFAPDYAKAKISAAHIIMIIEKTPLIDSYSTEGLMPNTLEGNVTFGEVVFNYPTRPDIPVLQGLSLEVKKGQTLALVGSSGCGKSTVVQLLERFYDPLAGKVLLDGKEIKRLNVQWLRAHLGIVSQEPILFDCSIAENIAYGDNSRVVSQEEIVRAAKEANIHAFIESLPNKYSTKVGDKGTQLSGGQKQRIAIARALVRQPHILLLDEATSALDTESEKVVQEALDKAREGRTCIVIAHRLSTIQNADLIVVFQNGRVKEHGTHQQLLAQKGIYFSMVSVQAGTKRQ
# Text: as §1
# patients with NASH = conditions: cited from earlier work
# [3] = cited from earlier work
smiles,measurement,setting,value
"CC(C)c1nc(N(C)S(C)(=O)=O)nc(-c2ccc(F)cc2)c1/C=C/[C@@H](O)C[C@@H](O)CC(=O)O [rosuvastatin, (E)-7-[4-(4-fluorophenyl)-6-isopropyl-2-[methyl(methylsulfonyl)amino]pyrimidin-5-yl](3R,5S)-3,5-dihydroxyhept-6-enoic acid, reference compound]",Accumulation in control cells,"human OSTαβ; dog, MDCK, 1 μM",0.0557 ± 0.00359 pmol/min/cm^2
same,Accumulation in control cells,"human OSTαβ; dog, MDCK, 10 μM",0.297 ± 0.0377 pmol/min/cm^2
same,Accumulation in control cells,"human OSTαβ; human, MDCK, 0.1 μM",0.00664 ± 0.00215 pmol/min/cm^2
same,Accumulation in transporter cells,"human OSTαβ; human, MDCK, 0.1 μM",0.00894 ± 0.000845 pmol/min/cm^2
same,Net accumulation,"human OSTαβ; human, MDCK, 0.1 μM",0.0023 ± 0.000845 pmol/min/cm^2
same,Accumulation in transporter cells,"human OSTαβ; human, MDCK, 1 μM",0.0575 ± 0.00167 pmol/min/cm^2
same,Net accumulation,"human OSTαβ; human, MDCK, 1 μM",0.00176 ± 0.00167 pmol/min/cm^2
same,Accumulation in transporter cells,"human OSTαβ; human, MDCK, 10 μM",0.459 ± 0.0599 pmol/min/cm^2
same,Net accumulation,"human OSTαβ; human, MDCK, 10 μM",0.162 ± 0.0599 pmol/min/cm^2
same,"Cmax, geometric mean",[1],3.11 ng/mL
same,"% AUCexts, mean",[1]; 10 mg,10.6%
same,"Cmax, mean",[1]; 10 mg,3.62 ng/mL
same,"T1/2, mean",[1]; 10 mg,18.2 h
same,AUC(0-inf),"clinical; 10 mg, mean",51.7 ng·h/mL
same,AUC(0-t),"clinical; 10 mg, mean",44.5 ng·h/mL
same,Tmax,"clinical; 10 mg, Tmax, mean",4.56 h
same,AUC(0-inf),clinical; geometric mean,46.6 ng·h/mL
same,AUC(0-t),clinical; geometric mean,38 ng·h/mL
"CC(C)c1cc(Oc2c(Cl)cc(-n3nc(C#N)c(=O)[nH]c3=O)cc2Cl)n[nH]c1=O [MGL-3196, 2-(3,5-dichloro-4-((5-isopropyl-6-oxo-1,6-dihydropyridazin-3-yl)oxy)phenyl)-3,5-dioxo-2,3,4,5-tetrahydro-1,2,4-triazine-6-carbonitrile]",LDL-C and other atherogenic lipids lowering in patients with HeFH,[2]; versus placebo,statistically significantly lowers
same,Apolipoprotein B (ApoB) lowering,"[2]; versus placebo, p<0.0001",−18-29%
same,Apolipoprotein CIII (Apo CIII) lowering,"[2]; versus placebo, p<0.0001",−22%
same,Lipoprotein (a) (Lp(a)) lowering,"[2]; versus placebo, p<0.0001",−26-33%
same,Triglyceride (TG) lowering,"[2]; versus placebo, p<0.0001",−25-31%
same,LDL-C lowering compared to placebo,[2]; prespecified group of patients intolerant of high intensity statin doses,28.5%
same,Inhibition of BCRP (in words),BCRP,moderate inhibitor
same,DDI R-value,"BCRP; Biliary/renal/BBB, [Ifree]/IC50 ≥ 0.02",0.004
same,DDI R-value,"BCRP; Intestine, [I2]/IC50 ≥ 10, predicted gut-wall BCRP interaction",33.5
same,Inhibition of P-gp (in words),P-gp,not an inhibitor
same,Substrate for human OSTαβ (conclusion in words),human OSTαβ; MDCK,may be a substrate
same,Accumulation in control cells,"human OSTαβ; dog, MDCK, 1 μM",1.91 ± 0.220 pmol/min/cm^2
same,Accumulation in control cells,"human OSTαβ; dog, MDCK, 10 μM",11.3 ± 0.500 pmol/min/cm^2
same,Accumulation in control cells,"human OSTαβ; dog, MDCK, 100 μM",49.3 ± 6.28 pmol/min/cm^2
same,Accumulation in transporter cells,"human OSTαβ; human, MDCK, 1 μM",2.58 ± 0.103 pmol/min/cm^2
same,Net accumulation,"human OSTαβ; human, MDCK, 1 μM",0.670 ± 0.103 pmol/min/cm^2
same,Accumulation in transporter cells,"human OSTαβ; human, MDCK, 10 μM",21.9 ± 0.810 pmol/min/cm^2
same,Net accumulation,"human OSTαβ; human, MDCK, 10 μM",10.6 ± 0.810 pmol/min/cm^2
same,Accumulation in transporter cells,"human OSTαβ; human, MDCK, 100 μM",137 ± 12.8 pmol/min/cm^2
same,Net accumulation,"human OSTαβ; human, MDCK, 100 μM",88.1 ± 12.8 pmol/min/cm^2
same,Safety issues such as liver enzyme or creatine kinase (CK) elevations,[1],no safety issues were observed
same,Reducing hepatic fat compared to placebo,patients with NASH; after 12 weeks and 36 weeks of treatment,effective
same,Improving markers of liver injury and fibrosis compared to placebo,patients with NASH,effective
same,"Reducing atherogenic lipids and lipoproteins (LDL cholesterol, apolipoprotein B, triglycerides, lipoprotein(a), apolipoprotein CIII) compared to placebo",patients with NASH,effective
same,Effect on elevated liver enzymes,[3]; NASH patients,reduces elevated liver enzymes
same,Safety profile,[3]; in vivo,clean safety profile
same,"Suppression of the central thyroid axis, THR-α effects on heart rate or bone",[3]; in vivo,neither suppression of the central thyroid axis nor THR-α effects on heart rate or bone
"C[C@H](CCC(=O)NCCS(=O)(=O)O)[C@H]1CC[C@H]2[C@@H]3[C@H](O)C[C@@H]4C[C@H](O)CC[C@]4(C)[C@H]3C[C@H](O)[C@]12C [taurocholic acid, reference compound]",Net accumulation,human OSTαβ; 1 μM substrate,0.0809 ± 0.0105 pmol/min/cm^2
same,Accumulation in transporter cells,"human OSTαβ; 1 μM substrate, OSTαβ MDCK-II cells",0.109 ± 0.0105 pmol/min/cm^2
